# Experimental data reported in patent US9302999B2, “Substituted triazoles as herbicides” (E. I. DU PONT DE NEMOURS AND COMPANY, priority 2012, dated 2016).
# Experiments:
# Format in all cases: in vivo
# [1] = system: lambsquarters (Chenopodium album); experiment: Test C pre-/postemergence: lambsquarters
# Outline: (§1)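 Preemergence on seeds in loam/sand, postemergence on 2–18 cm (1–4-leaf) plants in peat-based medium; compounds in non-phytotoxic solvent with surfactant. After 13–15 days in greenhouse, visual rating versus controls, 0 (no effect) to 100 (complete control).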
# [2] = system: ryegrass, Italian (Italian ryegrass, Lolium multiflorum); experiment: Test C pre-/postemergence: ryegrass, Italian
# Outline: as §1
# [3] = system: crabgrass, large (large crabgrass, Digitaria sanguinalis); experiment: Test A pre-/postemergence: crabgrass, large
# Outline: (§2)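 Plants in loam–sand blend were treated with test chemicals in non-phytotoxic solvent with surfactant, either as preemergence directed soil spray or postemergence at 2–10 cm, one- to two-leaf stage. After about ten days in greenhouse, injury was rated visually against untreated controls on a 0–100 scale (100 = complete control).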
# [4] = system: foxtail, giant (giant foxtail, Setaria faberii); experiment: Test A pre-/postemergence: foxtail, giant
# Outline: as §2
# corn (Zea mays) = experiment: Test A pre-/postemergence: corn
# Outline: as §2
# [5] = system: johnsongrass (Sorghum halepense); experiment: Test C pre-/postemergence: johnsongrass
# Outline: as §1
# [6] = system: wheat (Triticum aestivum); experiment: Test A pre-/postemergence: wheat
# Outline: as §2
# [7] = system: sedge, umbrella (small-flower umbrella sedge Cyperus difformis); experiment: Test B flooded paddy: sedge, umbrella; settings: Flood, applied to paddy water at 2-leaf stage, visually evaluated after 13 to 15 days
# Outline: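 Flooded-pot test: compound dosed into 3 cm of standing water above soil when plants had two leaves. Visual control ratings (0–100) versus untreated plants after 13–15 d.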
# [8] = system: velvetleaf (Abutilon theophrasti); experiment: Test C pre-/postemergence: velvetleaf
# Outline: as §1
# [9] = Postemergence, 31 g ai/ha, scale 0 to 100 (0 no effect, 100 complete control)
# [10] = Postemergence, 62 g ai/ha, scale 0 to 100 (0 no effect, 100 complete control)
# [11] = Postemergence, 125 g ai/ha, scale 0 to 100, 0 no effect, 100 complete control
# [12] = Postemergence, 250 g ai/ha, scale 0 to 100
# [13] = Preemergence, 31 g ai/ha, scale of 0 to 100, 0 is no effect, 100 is complete control
# [14] = Preemergence, 62 g ai/ha, scale of 0 to 100, 0 is no effect, 100 is complete control
# [15] = Preemergence, 125 g ai/ha, scale 0 to 100, 0 no effect, 100 complete control
# [16] = Preemergence, 250 g ai/ha, scale 0 to 100, 0 no effect, 100 complete control
# [17] = Postemergence, 125 g ai/ha, 0 to 100 scale, 0 is no effect, 100 is complete control
# [18] = Postemergence, 500 g ai/ha, visual rating on 0 to 100 scale (0 no effect, 100 complete control), approximately ten days
# [19] = Preemergence, 125 g ai/ha, 0 to 100 scale (0 no effect, 100 complete control)
# [20] = Preemergence, 500 g ai/ha, 0 to 100 scale, 0 is no effect, 100 is complete control
# [21] = Postemergence, 250 g ai/ha, scale 0 to 100 (0 no effect, 100 complete control)
# [22] = Preemergence, 31 g ai/ha, scale 0 (no effect) to 100 (complete control)
# [23] = Postemergence, 500 g ai/ha, 0 to 100 scale, 0 is no effect, 100 is complete control
# [24] = Preemergence, 125 g ai/ha, 0 to 100 scale where 0 is no effect and 100 is complete control
# [25] = Preemergence, 500 g ai/ha, 0 to 100 scale (0 no effect, 100 complete control)
structure (smiles),measurement,setting,value
Fc1ccc(-n2nc(Cc3ccnc(C(F)(F)F)c3)c(OC(F)F)n2)cc1 [Compound 25],"Plant response rating, Lambsquarters",[1]; [9],70
same,"Plant response rating, Lambsquarters",[1]; [10],80
same,"Plant response rating, Lambsquarters",[1]; [11],98
same,"Plant response rating, Lambsquarters",[1]; [12],98
same,"Plant response rating, Lambsquarters",[1]; [13],90
same,"Plant response rating, Lambsquarters",[1]; [14],90
same,"Plant response rating, Lambsquarters",[1]; [15],98
same,"Plant response rating, Lambsquarters",[1]; [16],98
same,"Plant response rating, Ryegrass, Italian",[2]; [9],5
same,"Plant response rating, Ryegrass, Italian",[2]; [10],5
same,"Plant response rating, Ryegrass, Italian",[2]; [11],5
same,"Plant response rating, Ryegrass, Italian",[2]; [12],5
same,"Plant response rating, Ryegrass, Italian",[2]; [13],5
same,"Plant response rating, Ryegrass, Italian",[2]; [14],35
same,"Plant response rating, Ryegrass, Italian",[2]; [15],45
same,"Plant response rating, Ryegrass, Italian",[2]; [16],90
same,"Crabgrass, Large plant response rating",[3]; [17],90
same,"Crabgrass, Large plant response rating",[3]; [18],90
same,"Plant response rating, Crabgrass, Large",[3]; [19],90
same,"Plant response rating, Crabgrass, Large",[3]; [20],100
same,"Foxtail, Giant plant response rating",[4]; [17],90
same,"Foxtail, Giant plant response rating",[4]; [18],90
same,"Plant response rating, Foxtail, Giant",[4]; [19],100
same,"Plant response rating, Foxtail, Giant",[4]; [20],100
same,Corn plant response rating,corn (Zea mays); [17],30
same,Corn plant response rating,corn (Zea mays); [18],30
same,"Plant response rating, Corn",corn (Zea mays); [19],10
same,"Plant response rating, Corn",corn (Zea mays); [20],30
same,"Plant response rating, Johnsongrass",[5]; [9],5
same,"Plant response rating, Johnsongrass",[5]; [10],5
same,"Plant response rating, Johnsongrass",[5]; [11],10
same,"Plant response rating, Johnsongrass",[5]; [12],15
same,"Plant response rating, Johnsongrass",[5]; [13],5
same,"Plant response rating, Johnsongrass",[5]; [14],30
same,"Plant response rating, Johnsongrass",[5]; [15],65
same,"Plant response rating, Johnsongrass",[5]; [16],98
same,Wheat plant response rating,[6]; [17],40
same,Wheat plant response rating,[6]; [18],60
same,"Plant response rating, Wheat",[6]; [19],20
same,"Plant response rating, Wheat",[6]; [20],80
same,"Plant response rating, Sedge, Umbrella (0 to 100 scale, 0 is no effect, 100 is complete control)",[7]; 250 g ai/ha,95
same,"Plant response rating, Velvetleaf",[8]; [9],15
same,"Plant response rating, Velvetleaf",[8]; [10],15
same,"Plant response rating, Velvetleaf",[8]; [11],45
same,"Plant response rating, Velvetleaf",[8]; [12],50
same,"Plant response rating, Velvetleaf",[8]; [13],0
same,"Plant response rating, Velvetleaf",[8]; [14],5
same,"Plant response rating, Velvetleaf",[8]; [15],15
same,"Plant response rating, Velvetleaf",[8]; [16],70
CCCc1nn(-c2ccc(F)cc2F)nc1Oc1ccnc(C(F)(F)F)c1 [Compound 179],"Plant response rating, Lambsquarters",[1]; [9],80
same,"Plant response rating, Lambsquarters",[1]; [10],80
same,"Plant response rating, Lambsquarters",[1]; [11],85
same,"Plant response rating, Lambsquarters",[1]; [21],90
same,"Plant response rating, Lambsquarters",[1]; [22],98
same,"Plant response rating, Lambsquarters",[1]; [14],98
same,"Plant response rating, Lambsquarters",[1]; [15],98
same,"Plant response rating, Lambsquarters",[1]; [16],100
same,"Plant response rating, Ryegrass, Italian",[2]; [9],10
same,"Plant response rating, Ryegrass, Italian",[2]; [10],15
same,"Plant response rating, Ryegrass, Italian",[2]; [11],25
same,"Plant response rating, Ryegrass, Italian",[2]; [21],40
same,"Plant response rating, Ryegrass, Italian",[2]; [22],45
same,"Plant response rating, Ryegrass, Italian",[2]; [14],95
same,"Plant response rating, Ryegrass, Italian",[2]; [15],95
same,"Plant response rating, Ryegrass, Italian",[2]; [16],95
same,"Plant response rating, Crabgrass, Large",[3]; [17],90
same,"Crabgrass, Large plant response rating",[3]; [23],90
same,"Plant response rating, Crabgrass, Large",[3]; [24],100
same,"Plant response rating, Crabgrass, Large",[3]; [25],100
same,"Plant response rating, Foxtail, Giant",[4]; [17],90
same,"Foxtail, Giant plant response rating",[4]; [23],90
same,"Plant response rating, Foxtail, Giant",[4]; [24],100
same,"Plant response rating, Foxtail, Giant",[4]; [25],100
same,"Plant response rating, Corn",corn (Zea mays); [17],20
same,Corn plant response rating,corn (Zea mays); [23],30
same,"Plant response rating, Corn",corn (Zea mays); [24],20
same,"Plant response rating, Corn",corn (Zea mays); [25],30
same,"Plant response rating, Johnsongrass",[5]; [9],10
same,"Plant response rating, Johnsongrass",[5]; [10],20
same,"Plant response rating, Johnsongrass",[5]; [11],20
same,"Plant response rating, Johnsongrass",[5]; [21],55
same,"Plant response rating, Johnsongrass",[5]; [22],5
same,"Plant response rating, Johnsongrass",[5]; [14],60
same,"Plant response rating, Johnsongrass",[5]; [15],95
same,"Plant response rating, Johnsongrass",[5]; [16],100
same,"Plant response rating, Wheat",[6]; [17],30
same,Wheat plant response rating,[6]; [23],40
same,"Plant response rating, Wheat",[6]; [24],20
same,"Plant response rating, Wheat",[6]; [25],50
same,"Plant response rating, Sedge, Umbrella (0 to 100 scale, 0 is no effect, 100 is complete control)",[7]; 125 g ai/ha,75
same,"Plant response rating, Velvetleaf",[8]; [9],55
same,"Plant response rating, Velvetleaf",[8]; [10],75
same,"Plant response rating, Velvetleaf",[8]; [11],75
same,"Plant response rating, Velvetleaf",[8]; [21],75
same,"Plant response rating, Velvetleaf",[8]; [22],30
same,"Plant response rating, Velvetleaf",[8]; [14],75
same,"Plant response rating, Velvetleaf",[8]; [15],80
same,"Plant response rating, Velvetleaf",[8]; [16],80
CCCc1nn(-c2ccc(F)c(F)c2)nc1Oc1ccnc(C(F)(F)F)c1 [Compound 172],"Plant response rating, Lambsquarters",[1]; [9],98
same,"Plant response rating, Lambsquarters",[1]; [10],98
same,"Plant response rating, Lambsquarters",[1]; [11],98
same,"Plant response rating, Lambsquarters",[1]; [21],98
same,"Plant response rating, Lambsquarters",[1]; [22],90
same,"Plant response rating, Lambsquarters",[1]; [14],90
same,"Plant response rating, Lambsquarters",[1]; [15],95
same,"Plant response rating, Lambsquarters",[1]; [16],95
same,"Plant response rating, Ryegrass, Italian",[2]; [9],10
same,"Plant response rating, Ryegrass, Italian",[2]; [10],20
same,"Plant response rating, Ryegrass, Italian",[2]; [11],35
same,"Plant response rating, Ryegrass, Italian",[2]; [21],40
same,"Plant response rating, Ryegrass, Italian",[2]; [22],100
same,"Plant response rating, Ryegrass, Italian",[2]; [14],100
same,"Plant response rating, Ryegrass, Italian",[2]; [15],100
same,"Plant response rating, Ryegrass, Italian",[2]; [16],100
same,"Plant response rating, Crabgrass, Large",[3]; [17],90
same,"Crabgrass, Large plant response rating",[3]; [23],100
same,"Plant response rating, Crabgrass, Large",[3]; [24],100
same,"Plant response rating, Crabgrass, Large",[3]; [25],100
same,"Plant response rating, Foxtail, Giant",[4]; [17],90
same,"Foxtail, Giant plant response rating",[4]; [23],90
same,"Plant response rating, Foxtail, Giant",[4]; [24],100
same,"Plant response rating, Foxtail, Giant",[4]; [25],100
same,"Plant response rating, Corn",corn (Zea mays); [17],30
same,Corn plant response rating,corn (Zea mays); [23],50
same,"Plant response rating, Corn",corn (Zea mays); [24],30
same,"Plant response rating, Corn",corn (Zea mays); [25],60
same,"Plant response rating, Johnsongrass",[5]; [9],35
same,"Plant response rating, Johnsongrass",[5]; [10],60
same,"Plant response rating, Johnsongrass",[5]; [11],65
same,"Plant response rating, Johnsongrass",[5]; [21],95
same,"Plant response rating, Johnsongrass",[5]; [22],60
same,"Plant response rating, Johnsongrass",[5]; [14],75
same,"Plant response rating, Johnsongrass",[5]; [15],95
same,"Plant response rating, Johnsongrass",[5]; [16],98
same,"Plant response rating, Wheat",[6]; [17],40
same,Wheat plant response rating,[6]; [23],50
same,"Plant response rating, Wheat",[6]; [24],50
same,"Plant response rating, Wheat",[6]; [25],70
same,"Plant response rating, Sedge, Umbrella (0 to 100 scale, 0 is no effect, 100 is complete control)",[7]; 250 g ai/ha,75
same,"Plant response rating, Velvetleaf",[8]; [9],65
same,"Plant response rating, Velvetleaf",[8]; [10],65
same,"Plant response rating, Velvetleaf",[8]; [11],75
same,"Plant response rating, Velvetleaf",[8]; [21],80
same,"Plant response rating, Velvetleaf",[8]; [22],60
same,"Plant response rating, Velvetleaf",[8]; [14],75
same,"Plant response rating, Velvetleaf",[8]; [15],100
same,"Plant response rating, Velvetleaf",[8]; [16],100
